Reference: ChEMBL document CHEMBL1133617, “Effect of C9-methyl substitution and C8-C9 conformational restriction on antifolate and antitumor activity of classical 5-substituted 2,4-diaminofuro[2,3-d]pyrimidines” (J Med Chem, 2000)

T1: Bifunctional dihydrofolate reductase-thymidylate synthase (Toxoplasma gondii, UniProt Q07422)
T1 sequence (Q07422 whole entry): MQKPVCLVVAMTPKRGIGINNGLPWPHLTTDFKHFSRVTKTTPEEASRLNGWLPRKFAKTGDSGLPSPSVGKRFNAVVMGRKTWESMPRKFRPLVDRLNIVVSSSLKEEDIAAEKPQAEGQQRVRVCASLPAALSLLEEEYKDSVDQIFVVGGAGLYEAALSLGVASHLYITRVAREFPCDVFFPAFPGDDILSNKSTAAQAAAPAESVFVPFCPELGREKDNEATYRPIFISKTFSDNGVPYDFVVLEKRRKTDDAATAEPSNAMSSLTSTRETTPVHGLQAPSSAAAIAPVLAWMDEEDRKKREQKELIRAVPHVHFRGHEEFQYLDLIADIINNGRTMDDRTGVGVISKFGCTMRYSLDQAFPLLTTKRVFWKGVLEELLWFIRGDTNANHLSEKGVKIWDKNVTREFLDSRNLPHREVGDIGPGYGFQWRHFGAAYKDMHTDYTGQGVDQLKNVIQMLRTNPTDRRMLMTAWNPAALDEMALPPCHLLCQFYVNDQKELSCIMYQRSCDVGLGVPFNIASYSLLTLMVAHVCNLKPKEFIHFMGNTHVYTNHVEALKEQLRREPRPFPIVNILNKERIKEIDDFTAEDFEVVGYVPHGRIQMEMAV

T2: Thymidylate synthase (Lactobacillus casei, UniProt P00469)
T2 sequence (P00469 whole entry): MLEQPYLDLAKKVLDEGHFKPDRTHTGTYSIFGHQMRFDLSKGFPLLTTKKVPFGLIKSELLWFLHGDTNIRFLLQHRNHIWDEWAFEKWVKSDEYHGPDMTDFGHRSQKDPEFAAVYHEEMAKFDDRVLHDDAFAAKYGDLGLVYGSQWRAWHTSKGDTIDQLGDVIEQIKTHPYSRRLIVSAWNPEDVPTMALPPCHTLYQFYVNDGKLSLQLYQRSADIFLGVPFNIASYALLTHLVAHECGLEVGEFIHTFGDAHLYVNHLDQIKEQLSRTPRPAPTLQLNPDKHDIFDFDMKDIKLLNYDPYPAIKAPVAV

T3: Dihydrofolate reductase (Escherichia coli, UniProt P0ABQ4)
T3 sequence (P0ABQ4 whole entry): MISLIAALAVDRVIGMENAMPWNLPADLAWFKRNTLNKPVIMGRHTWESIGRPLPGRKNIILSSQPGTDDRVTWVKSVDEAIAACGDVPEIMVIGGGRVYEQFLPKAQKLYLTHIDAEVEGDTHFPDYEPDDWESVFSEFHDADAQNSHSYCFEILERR

T4: Dihydrofolate reductase (Homo sapiens, UniProt P00374)
T4 sequence (P00374 whole entry): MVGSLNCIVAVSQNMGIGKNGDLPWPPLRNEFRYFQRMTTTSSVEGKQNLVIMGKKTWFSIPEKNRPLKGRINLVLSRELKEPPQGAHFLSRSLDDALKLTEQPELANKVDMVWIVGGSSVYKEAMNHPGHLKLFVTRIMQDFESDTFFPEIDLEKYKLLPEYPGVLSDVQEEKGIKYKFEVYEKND

B1: Folylpolyglutamate synthase, mitochondrial (Homo sapiens), Q05932 (protein)
chain: MSRARSHLRAALFLAAASARGITTQVAARRGLSAWPVPQEPSMEYQDAVRMLNTLQTNAGYLEQVKRQRGDPQTQLEAMELYLARSGLQVEDLDRLNIIHVTGTKGKGSTCAFTECILRSYGLKTGFFSSPHLVQVRERIRINGQPISPELFTKYFWRLYHRLEETKDGSCVSMPPYFRFLTLMAFHVFLQEKVDLAVVEVGIGGAYDCTNIIRKPVVCGVSSLGIDHTSLLGDTVEKIAWQKGGIFKQGVPAFTVLQPEGPLAVLRDRAQQISCPLYLCPMLEALEEGGPPLTLGLEGEHQRSNAALALQLAHCWLQRQDRHGAGEPKASRPGLLWQLPLAPVFQPTSHMRLGLRNTEWPGRTQVLRRGPLTWYLDGAHTASSAQACVRWFRQALQGRERPSGGPEVRVLLFNATGDRDPAALLKLLQPCQFDYAVFCPNLTEVSSTGNADQQNFTVTLDQVLLRCLEHQQHWNHLDEEQASPDLWSAPSPEPGGSASLLLAPHPPHTCSASSLVFSCISHALQWISQGRDPIFQPPSPPKGLLTHPVAHSGASILREAAAIHVLVTGSLHLVGGVLKLLEPALSQ

Legend:
A253 cell line = test: Growth inhibition of human squamous cell carcinoma A253 cells during continuous Exposure ([…]); format: functional, cell-based
CCRF-CEM = test: Growth inhibition of CCRF-CEM human leukemia cells.; format: functional, cell-based
Dihydrofolate reductase [1] = target: Dihydrofolate reductase (Lactobacillus casei, UniProt P00381); test: Inhibitory concentration against Lactobacillus casei Dihydrofolate reductase; parameters: species or system Lacticaseibacillus casei
Chain of Dihydrofolate reductase (Lactobacillus casei, UniProt P00381) (P00381 whole entry): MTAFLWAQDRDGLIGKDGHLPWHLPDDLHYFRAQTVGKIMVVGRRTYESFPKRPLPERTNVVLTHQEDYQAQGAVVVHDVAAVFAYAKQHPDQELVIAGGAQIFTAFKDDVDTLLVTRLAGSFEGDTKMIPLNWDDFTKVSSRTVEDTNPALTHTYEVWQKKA

[2] = target: T1, Bifunctional dihydrofolate reductase-thymidylate synthase; test: Inhibitory concentration against Toxoplasma gondii Dihydrofolate reductase
FaDu [3] = test: Growth inhibition of human squamous cell carcinoma FaDu cells during continuous Exposure ([…]); format: functional, cell-based
[4] = Growth inhibition of MTX-resistant R2(Bos) sublines.; format: functional, Homo sapiens
[5] = Growth inhibition of MTX-resistant R30dm sublines.; format: functional, Homo sapiens
Thymidylate synthase [6] = target: Thymidylate synthase (Escherichia coli, UniProt C3SWJ7); test: Inhibitory concentration against Escherichia coli Thymidylate synthase (TS).
Chain of Thymidylate synthase (Escherichia coli, UniProt C3SWJ7) (C3SWJ7 whole entry): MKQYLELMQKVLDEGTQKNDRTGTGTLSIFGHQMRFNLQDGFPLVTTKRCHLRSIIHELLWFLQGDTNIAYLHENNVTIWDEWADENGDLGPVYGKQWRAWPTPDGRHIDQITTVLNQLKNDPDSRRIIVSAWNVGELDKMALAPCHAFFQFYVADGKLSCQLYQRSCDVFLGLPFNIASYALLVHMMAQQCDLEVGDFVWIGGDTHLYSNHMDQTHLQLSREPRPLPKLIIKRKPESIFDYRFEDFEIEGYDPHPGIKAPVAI

Thymidylate synthase [7] = target: T2, Thymidylate synthase; test: Inhibitory concentration against Lactobacillus casei Thymidylate synthase (TS).; parameters: species or system Lacticaseibacillus casei
[8] = ratio of vmax to Km
Thymidylate synthase [9] = target: Thymidylate synthase (Rattus norvegicus, UniProt P45352); test: Inhibitory concentration against rat Thymidylate synthase (TS)
Chain of Thymidylate synthase (Rattus norvegicus, UniProt P45352) (P45352 whole entry): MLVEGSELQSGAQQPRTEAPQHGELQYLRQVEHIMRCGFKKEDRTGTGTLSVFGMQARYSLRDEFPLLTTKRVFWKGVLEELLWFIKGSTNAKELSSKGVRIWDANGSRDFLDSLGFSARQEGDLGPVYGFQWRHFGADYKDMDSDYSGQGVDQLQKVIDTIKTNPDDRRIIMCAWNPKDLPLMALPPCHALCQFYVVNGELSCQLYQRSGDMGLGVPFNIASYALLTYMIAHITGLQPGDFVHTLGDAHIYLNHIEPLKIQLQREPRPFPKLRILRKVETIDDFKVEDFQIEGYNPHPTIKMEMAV

Thymidylate synthase [10] = target: Thymidylate synthase (Homo sapiens, UniProt P04818); test: Inhibitory concentration against recombinant human (rh) Thymidylate synthase (TS)
Chain of Thymidylate synthase (Homo sapiens, UniProt P04818) (P04818 whole entry): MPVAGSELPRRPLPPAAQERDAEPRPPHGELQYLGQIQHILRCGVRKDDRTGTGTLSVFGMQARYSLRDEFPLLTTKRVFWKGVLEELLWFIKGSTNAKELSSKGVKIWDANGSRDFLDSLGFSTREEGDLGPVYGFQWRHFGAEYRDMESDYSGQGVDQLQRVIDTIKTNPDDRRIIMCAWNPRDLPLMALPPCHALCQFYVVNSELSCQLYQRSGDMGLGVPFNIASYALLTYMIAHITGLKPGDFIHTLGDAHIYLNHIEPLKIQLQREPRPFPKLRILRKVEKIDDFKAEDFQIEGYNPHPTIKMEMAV

[11] = Growth inhibition of MTX-resistant R1 sublines.; format: functional, Homo sapiens
Dihydrofolate reductase [12] = target: T3, Dihydrofolate reductase
Description: Inhibitory concentration against Escherichia coli Dihydrofolate reductase

Dihydrofolate reductase [13] = target: T4, Dihydrofolate reductase
Description: Inhibitory concentration against recombinant human (rh) Dihydrofolate reductase

FaDu [14] = test: protection of FaDu cells from the growth inhibitory effects by 50 uM of hypoxanthine (HX); format: functional, Homo sapiens; parameters: scale not given: the % may be the effect or the level left
FaDu [15] = test: protection of FaDu cells from the growth inhibitory effects by the combination of 50 uM of hypoxanthine (HX) and 40 uM of thymidine (TdR).; format: functional, Homo sapiens; parameters: scale not given: the % may be the effect or the level left
FaDu [16] = test: protection of FaDu cells from the growth inhibitory effects of the compound.; format: functional, Homo sapiens; parameters: scale not given: the % may be the effect or the level left
FaDu [17] = test: protection of FaDu cells from the growth inhibitory effects by 40 uM of thymidine (TdR).; format: functional, Homo sapiens; parameters: scale not given: the % may be the effect or the level left
Dihydrofolate reductase [18] = target: T4, Dihydrofolate reductase; test: Inhibitory activity against Dihydrofolate reductase
FaDu [19] = test: protection of FaDu cells from the growth inhibitory effects by combination of 50 uM of thymidine (TdR).; format: functional, Homo sapiens; parameters: scale not given: the % may be the effect or the level left
[20] = substrate: C/C(=C/c1coc2nc(N)nc(N)c12)c1ccc(C(=O)N[C@@H](CCC(=O)O)C(=O)O)cc1.C/C(=C\c1coc2nc(N)nc(N)c12)c1ccc(C(=O)N[C@@H](CCC(=O)O)C(=O)O)cc1; test: (§1) Activity as substrate for recombinant human Folyl-polyglutamate synthase (rhFPGS)
[21] = substrate: C/C(=C\c1coc2nc(N)nc(N)c12)c1ccc(C(=O)N[C@@H](CCC(=O)O)C(=O)O)cc1; test: as §1
[22] = substrate: CC(Cc1coc2nc(N)nc(N)c12)c1ccc(C(=O)N[C@@H](CCC(=O)O)C(=O)O)cc1; test: as §1
[23] = substrate: Nc1nc(N)c2nc(CNc3ccc(C(=O)N[C@@H](CCC(=O)O)C(=O)O)cc3)cnc2n1; test: as §1
[24] = substrate: C/C(=C/c1coc2nc(N)nc(N)c12)c1ccc(C(=O)N[C@@H](CCC(=O)O)C(=O)O)cc1.C/C(=C\c1coc2nc(N)nc(N)c12)c1ccc(C(=O)N[C@@H](CCC(=O)O)C(=O)O)cc1; test: (§2) Activity as substrate for recombinant human Folyl-polyglutamate synthase (rhFPGS) relative to aminopterin.
[25] = substrate: C/C(=C\c1coc2nc(N)nc(N)c12)c1ccc(C(=O)N[C@@H](CCC(=O)O)C(=O)O)cc1; test: as §2
[26] = substrate: CC(Cc1coc2nc(N)nc(N)c12)c1ccc(C(=O)N[C@@H](CCC(=O)O)C(=O)O)cc1; test: as §2
[27] = substrate: Nc1nc(N)c2c(CCc3ccc(C(=O)N[C@@H](CCC(=O)O)C(=O)O)cc3)coc2n1; test: as §2
[28] = substrate: Nc1nc(N)c2nc(CNc3ccc(C(=O)N[C@@H](CCC(=O)O)C(=O)O)cc3)cnc2n1; test: as §2

Molecule	EC50 (A253 cell line)	EC50 (CCRF-CEM)	IC50 (Dihydrofolate reductase [1])	IC50 [2]	EC50 (FaDu [3])	EC50 [4]	EC50 [5]	IC50 (Thymidylate synthase [6])	IC50 (Thymidylate synthase [7])	Ratio [8]	IC50 (Thymidylate synthase [9])	IC50 (Thymidylate synthase [10])	EC50 [11]	IC50 (Dihydrofolate reductase [12])	also measured
C/C(=C/c1coc2nc(N)nc(N)c12)c1ccc(C(=O)N[C@@H](CCC(=O)O)C(=O)O)cc1.C/C(=C\c1coc2nc(N)nc(N)c12)c1ccc(C(=O)N[C@@H](CCC(=O)O)C(=O)O)cc1 (mixture of isomers)	700 nM	1180 nM	4400 nM	4400 nM	1400 nM	17000 nM	6400 nM	> 360000 nM	> 360000 nM	0.05	> 360000 nM	> 360000 nM	32000 nM	1100 nM	IC50 (Dihydrofolate reductase [13]): 2200 nM
Nc1nc(N)c2nc(CNc3ccc(C(=O)N[C@@H](CCC(=O)O)C(=O)O)cc3)cnc2n1										0.23					
CC(Cc1coc2nc(N)nc(N)c12)c1ccc(C(=O)N[C@@H](CCC(=O)O)C(=O)O)cc1 (some centres undefined)	28.5 nM	29.2 nM	2100 nM	2100 nM	17.5 nM	430 nM	220 nM	100000 nM	> 360000 nM		> 360000 nM	> 360000 nM	685 nM	1100 nM	Control (FaDu [14]): 3.75%; Control (FaDu [15]): 105.25%; Control (FaDu [16]): 5.75%; Control (FaDu [17]): 8%
Nc1nc(N)c2c(CCc3ccc(C(=O)N[C@@H](CCC(=O)O)C(=O)O)cc3)coc2n1							425 nM			0.07					
CN(Cc1coc2nc(N)nc(N)c12)c1ccc(C(=O)N[C@@H](CCC(=O)O)C(=O)O)cc1 [FURO[2,3D]PYRIMIDINE ANTIFOLATE]			220 nM	19800 nM			1030 nM		> 200000 nM			> 200000 nM	807 nM		
C/C(=C\c1coc2nc(N)nc(N)c12)c1ccc(C(=O)N[C@@H](CCC(=O)O)C(=O)O)cc1	> 10000 nM	34000 nM	84000 nM	110000 nM	> 10000 nM			> 360000 nM	> 360000 nM	0.15	> 360000 nM	> 360000 nM		11000 nM	IC50 (Dihydrofolate reductase [13]): 42000 nM
Nc1nc(N)c2c(CNCc3ccc(C(=O)N[C@@H](CCC(=O)O)C(=O)O)cc3)coc2n1															IC50 (Dihydrofolate reductase [18]): 10000 nM
Nc1nc(N)c2c(CNc3ccc(C(=O)N[C@@H](CCC(=O)O)C(=O)O)cc3)coc2n1				700 nM			663 nM					> 200000 nM	1520 nM		
CN(Cc1cnc2nc(N)nc(N)c2n1)c1ccc(C(=O)N[C@@H](CCC(=O)O)C(=O)O)cc1 [METHOTREXATE]					11.3 nM	1600 nM							675 nM		Control (FaDu [14]): 11.25%; Control (FaDu [19]): 102%; Control (FaDu [16]): 5.75%; Control (FaDu [17]): 9.25%
B1															Km [20]: 10.3 µM; Km [21]: 5.3 µM; Km [22]: 1.2 µM; Km [23]: 4.5 µM; Vmax [24]: 0.56; Vmax [25]: 0.76; Vmax [26]: 0.52; Vmax [27]: 0.065; Vmax [28]: 1
